{"source": "patent US9950026B2", "about": "“Methods for reducing oxidative damage” (Cornell Research Foundation, Inc., priority 2004, dated 2018)", "key": {"[1]": {"tested_on": "SH-SY5Y cells", "experiment": "Apoptosis by nuclear morphology (Hoechst 33342) after tBHP", "type": "cell-based, human", "protocol": "FIG. 20A-20C. […] (A)(a-c; a′-c′) N2A cells were treated with 50 μM tBHP alone or with SS-31 for 12 h. Cells were stained with Hoechst 33342 for 20 min., fixed, and imaged by fluorescent microscopy. (a) Untreated cells show uniformly stained nuclei (a′). […] (c) Cells treated with tBHP and 1 nM SS-31 had less nuclear changes (c′). […] Apoptotic cells were counted using MetaMorph software. *P<0.01 compared to untreated cells; *P<0.01 compared to tBHP alone. […] SH-SY5Y cells were treated with 25 μM tBHP for 24 h. *P<0.01 compared to untreated cells; *P<0.01 compared to tBHP alone.\nSH-SY5Y cells were grown on 96-well plates, treated with t-BHP (0.025 mM) in the absence or presence of SS-31 (10^−12M-10^−9M) at 37° C. for 24 h. All treatments were carried out in quadriplicates. Cells were then stained with […] Hoechst 33342 for 20 min, fixed with 4% paraformaldehyde, and imaged using a Zeiss fluorescent microscope (Axiovert 200M) equipped with the Zeiss Acroplan x20 objective. Nuclear morphology was evaluated using an excitation wavelength of 350±10 nm and a longpass filter of 400 nm for emission. All images were processed and analyzed using the MetaMorph software (Universal Imaging Corp., West Chester, Pa.). Uniformly stained nuclei were scored as healthy, viable neurons, while condensed or fragmented nuclei were scored as apoptotic."}, "[2]": {"tested_on": "SN-4741 cells", "experiment": "MPP+ toxicity, apoptosis by Hoechst 33342", "type": "cell-based", "conditions": "50 μM MPP+, 1 nM SS-31, 48 h", "protocol": "(A) SS-31 protects dopamine cells against MPP^+ toxicity. SN-4741 cells were treated with buffer, 50 μM MPP^+ or 50 μM MPP^+ and 1 nM SS-31, for 48 h, and the incidence of apoptosis was determined by fluorescent microscopy with Hoechst 33342."}, "[3]": {"tested_on": "N2A cells", "experiment": "tBHP-induced LDH release", "type": "cell-based, murine", "conditions": "100 μM tBHP", "protocol": "FIG. 18A-18B. SS-31 reduced tBHP-induced LDH release in SH-SY5Y (A) and N2A (B) cells. Cells were treated with 100 μM tBHP alone, or with SS-31, for 24 h. *P<0.05, **P<0.01, ***P<0.001, compared to tBHP alone.\nThe loss of cell viability induced by 100 μM tBHP was accompanied by a significant increase in LDH release in SH-SY5Y (FIG. 18A) and N2A cell (FIG. 18B)."}, "[4]": {"tested_on": "DBA/2 mice islets", "experiment": "Islets isolated from donor mice pre-treated with SS-31 (TMRM, yield, Annexin V/PI flow cytometry)", "type": "in vivo", "protocol": "FIG. 33A-33B. SS peptides penetrate islet cells, co-localize with mitochondria and preserve islet mitochondrial membrane potential. (A) Islet cell uptake of SS-31. DBA/2 islet cells were incubated with 1 nM of tritium labeled SS-31 and 1 μM unlabeled SS-31 at 37° C. for 1 h. Following incubation, radioactivity was measured in the medium and in cell lysates and the radioactive counts in the medium were subtracted from radioactive counts in the cell lysate and normalized to protein content. In four consecutive experiments, the mean±(SE) [^3H]SS-31 uptake was 70.2+/31 10.3 pmol/mg, of proteins (B)(i-iv) SS-31 preserves islet mitochondrial potential. DBA/2 mice were treated with SS-31 (3 mg/kg s.c. BID) or vehicle control 24 hours prior to pancreas harvest for islet isolation. SS-31 treated groups had 1 nM SS-31 added to the islet isolation reagents. Following isolation, TMRM uptake was evaluated using confocal laser scanning microscopy.\nFIG. 34A-34D. SS-31 reduces islet cell apoptosis. DBA/2 mice were pre-treated (24 and 12-hours hours prior to pancreas harvest and islet isolation) with SS-31 (3 mg/kg, s.c., BID) or vehicle control. SS-31 (1 nM was added to reagents used for the isolation of islets from SS-31-treated mice. The islets were dissociated in to single cells with trypsin/EDTA and were stained with Annexin V-FITC (AnV) and propidium iodide (PI) and analyzed with the use of dual parameter low cytometry. (A) Percentage of cell undergoing early apoptosis (AnV+cells); P=0.03. (B) Percentage of cells undergoing late apoptosis/early necrosis (AnV+/PI+cells); P=0.03. (C) Percentage of necrotic cells (PI+cells); P=1.0 (D) Percentage of viable cells (AnV-/PI-cells); P=0.03. Data from individual pancreatic islet isolations and mean±SE are shown, N=number of separate islet isolations. Two-tailed P-values were calculated using Mann-Whitney t-test.\nMitochondrial depolarization and the release of cytochrome c into the cytoplasm are critical antecedent events to cell death. TMRM, a fluorescent cationic indicator is taken up into mitochondria in a potential dependent manner.\nTo investigate whether the SS-31 optimizes islet isolation and results in increased islet yield, islet donor mice were pre-treated with SS-31."}}, "note": "Where a SMILES comes first, the peptide text is derived from it. [ ]: non-standard residue; d: D form. Dmt = Cc1cc(O)cc(C)c1C[C@H](N)C(=O)O", "data": [{"smiles": "Cc1cc(O)cc(C)c1C[C@H](NC(=O)[C@H](N)CCCNC(=N)N)C(=O)N[C@@H](CCCCN)C(=O)N[C@@H](Cc1ccccc1)C(N)=O", "note": "[SS-31, D-Arg-2′6′-Dmt-Lys-Phe-NH2] (H-[dR][Dmt]KF-NH2; N-terminus assumed)", "values": [{"measurement": "number of apoptotic cells", "setting": "[1]; 25 μM tBHP, 24 h", "value": "dose-dependently reduced"}, {"measurement": "apoptosis induced by a low dose of t-BHP", "setting": "[1]; 0.025 mM t-BHP, 1 nM SS-31, 24 h", "value": "prevents apoptosis"}, {"measurement": "percent of apoptotic cells", "setting": "[1]; 24 h, t-BHP 0.05 mM", "value": "dose-dependently reduced"}, {"measurement": "number of apoptotic cells", "setting": "[2]", "value": "reduced the number of apoptotic cells"}, {"measurement": "LDH release", "setting": "[3]; 0.1 and 1 nM of SS-31", "value": "reduced significantly"}, {"measurement": "LDH release / tBHP-induced cytotoxicity", "setting": "[3]; 24 h", "value": "dose-dependent decrease"}, {"measurement": "uptake of TMRM by islets (mitochondrial potential)", "setting": "[4]; SS-31 3 mg/kg s.c. BID to donor, 1 nM in isolation reagents", "value": "greater uptake of TMRM"}, {"measurement": "islet yield, mean±(SE)", "setting": "[4]; donor mice pre-treated with SS-31", "value": "291±60", "unit": "islets per pancreas"}, {"measurement": "islet cell viability (Annexin V-/PI- cells)", "setting": "[4]; donor mice treated with SS-31", "value": "62±3.5", "unit": "%"}, {"measurement": "late apoptosis/early necrosis (Annexin V+/PI+ cells)", "setting": "[4]; donor mice treated with SS-31", "value": "12.6±1.8", "unit": "%"}, {"measurement": "percentage of early apoptotic cells (Annexin V alone positive cells)", "setting": "[4]; donor mice treated with SS-31", "value": "5.5±1.0", "unit": "%"}, {"measurement": "percentage of necrotic cells (PI+ cells)", "setting": "[4]; donor mice treated with SS-31", "value": "did not reduce"}]}]}
